# Results published in ChEMBL document CHEMBL1250536, “Identification of small molecule inhibitors of telomerase activity through transcriptional regulation of hTERT and calcium induction pathway in human lung adenocarcinoma A549 cells” (2010).
# Active and inactive are the calls of the source. The calls are words filed in the database; no cut-off is given here.
# Legend:
# [1] = target: Telomerase reverse transcriptase (Homo sapiens) (UniProt O14746); test: Inhibition of telomerase in human A549 cells at 25 uM after 24 hrs by TRAP assay; assay type: cell-based
# Telomerase reverse transcriptase (Homo sapiens), sequence (O14746 whole entry): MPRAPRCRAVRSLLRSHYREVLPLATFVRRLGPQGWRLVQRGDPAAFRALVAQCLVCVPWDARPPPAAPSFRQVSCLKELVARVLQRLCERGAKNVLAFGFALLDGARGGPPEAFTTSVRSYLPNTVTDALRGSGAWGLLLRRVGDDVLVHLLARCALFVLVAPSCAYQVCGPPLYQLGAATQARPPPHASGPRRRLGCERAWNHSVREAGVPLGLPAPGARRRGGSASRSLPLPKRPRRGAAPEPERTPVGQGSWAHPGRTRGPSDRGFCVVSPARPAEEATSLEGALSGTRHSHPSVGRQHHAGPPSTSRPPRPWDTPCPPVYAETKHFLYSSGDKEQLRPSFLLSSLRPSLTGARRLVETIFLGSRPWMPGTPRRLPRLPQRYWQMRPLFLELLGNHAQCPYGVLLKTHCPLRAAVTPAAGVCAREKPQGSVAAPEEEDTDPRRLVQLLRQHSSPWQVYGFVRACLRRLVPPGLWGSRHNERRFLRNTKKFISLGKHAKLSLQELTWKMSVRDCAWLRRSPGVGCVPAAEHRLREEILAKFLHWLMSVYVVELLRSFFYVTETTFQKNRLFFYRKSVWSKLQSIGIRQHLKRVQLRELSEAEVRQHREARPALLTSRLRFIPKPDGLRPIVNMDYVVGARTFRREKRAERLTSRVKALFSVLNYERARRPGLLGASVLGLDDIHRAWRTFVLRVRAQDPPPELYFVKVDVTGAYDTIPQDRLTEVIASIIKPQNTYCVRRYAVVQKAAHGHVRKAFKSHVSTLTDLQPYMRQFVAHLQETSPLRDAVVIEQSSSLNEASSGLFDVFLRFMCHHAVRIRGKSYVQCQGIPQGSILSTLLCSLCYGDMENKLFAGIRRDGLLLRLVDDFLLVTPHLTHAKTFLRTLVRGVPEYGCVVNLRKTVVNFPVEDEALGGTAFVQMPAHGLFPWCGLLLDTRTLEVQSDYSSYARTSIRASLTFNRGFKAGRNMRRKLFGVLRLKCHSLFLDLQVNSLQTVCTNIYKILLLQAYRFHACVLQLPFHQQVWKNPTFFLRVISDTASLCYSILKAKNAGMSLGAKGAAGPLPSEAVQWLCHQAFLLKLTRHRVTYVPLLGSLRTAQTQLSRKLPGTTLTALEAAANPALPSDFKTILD
# [2] = target: Telomerase reverse transcriptase (Homo sapiens) (UniProt O14746); test: Inhibition of telomerase in human A549 cells at 25 uM after 24 hrs by TRAP assay in presence of 10 uM of MEK inhibitor U0126 pretreated for 1 hr; assay type: cell-based
# [3] = tested on: A549; test: Reduction of hTERT protein expression in human A549 cells at 25 uM after 24 hrs by immunofluorescence assay in presence of intracellular calcium chelator BAPTA-AM pretreated for 1 hr; assay type: functional, cell-based
# [4] = target: Telomerase reverse transcriptase (Homo sapiens) (UniProt O14746); test: Inhibition of telomerase in human A549 cells at 25 uM after 24 hrs by TRAP assay in presence of 20 uM of ERK inhibitor PD-98059 pretreated for 1 hr; assay type: cell-based
# [5] = tested on: A549; test: Reduction of hTERT protein expression in human A549 cells at 25 uM after 24 hrs by immunofluorescence assay; assay type: functional, cell-based
# [6] = tested on: A549; test: Reduction of colony formation in human A549 cells at 25 uM after 24 hrs by anchorage-independence cell growth assay relative to control; assay type: functional; parameters: scale not given: the % may be the effect or the level left
# [7] = tested on: A549; test: Cytotoxicity against human A549 cells assessed as reduction of cell proliferation at 50 uM after 24 hrs by MTS assay; assay type: functional; parameters: scale not given: the % may be the effect or the level left
# [8] = target: Telomerase reverse transcriptase (Homo sapiens) (UniProt O14746); test: Inhibition of telomerase in human A549 cells after 24 hrs by TRAP assay; assay type: cell-based
# [9] = tested on: A549; test: Reduction of hTERT mRNA expression in human A549 cells after 6 hrs by RT-PCR analysis in presence of 20 uM of intracellular calcium chelator BAPTA-AM pretreated for 1 hr; assay type: functional, cell-based
# [10] = tested on: A549; test: Reduction of GADD153 mRNA expression in human A549 cells at up to 50 uM after 6 hrs by RT-PCR analysis; assay type: functional, cell-based
# [11] = tested on: A549; test: Translocation of hTERT from nuclei to cytoplasm in human A549 cells at 25 uM after 24 hrs by immunofluorescence assay; assay type: functional, cell-based
# [12] = tested on: A549; test: Reduction of hTR mRNA expression in human A549 cells at up to 50 uM after 6 hrs by RT-PCR analysis; assay type: functional, cell-based
# [13] = tested on: A549; test: Reduction of hTERT mRNA expression in human A549 cells after 6 hrs by RT-PCR analysis; assay type: functional, cell-based
# [14] = tested on: A549; test: Cytotoxicity against human A549 cells assessed as reduction of cell proliferation after 24 hrs by MTS assay; assay type: functional, cell-based
# [15] = target: Telomerase reverse transcriptase (Homo sapiens) (UniProt O14746); test: Inhibition of telomerase in human A549 cells at 25 uM after 24 hrs by TRAP assay in presence of 50 uM of PI3 K inhibitor LY-294002 pretreated for 1 hr; assay type: cell-based
# [16] = target: Telomerase reverse transcriptase (Homo sapiens) (UniProt O14746); test: Inhibition of telomerase in human A549 cells assessed as increase of intracellular calcium release after 24 hrs using Fluo-3 AM staining by microscopic analysis in presence of BAPTA-AM pretreated for 1 hr; assay type: cell-based
# [17] = target: Telomerase reverse transcriptase (Homo sapiens) (UniProt O14746); test: Inhibition of telomerase in human A549 cells at 25 uM by TRAP assay; assay type: cell-based; details: TDE = time-dependent effect
# [18] = target: Telomerase reverse transcriptase (Homo sapiens) (UniProt O14746); test: Inhibition of telomerase in human A549 cells at 25 uM after 24 hrs by TRAP assay in presence of 50 uM of MAPK inhibitor SB-203580 pretreated for 1 hr; assay type: cell-based
# [19] = tested on: A549; test: Reduction of hTERT protein expression in human A549 cells after 6 hrs by Western blotting; assay type: functional, cell-based
# [20] = target: Telomerase reverse transcriptase (Homo sapiens) (UniProt O14746); test: Inhibition of telomerase in human A549 cells at 25 uM after 24 hrs by TRAP assay in presence of 20 uM of intracellular calcium chelator BAPTA-AM pretreated for 1 hr; assay type: cell-based
# [21] = target: Telomerase reverse transcriptase (Homo sapiens) (UniProt O14746); test: Inhibition of telomerase in human A549 cells at 25 uM after 24 hrs by TRAP assay in presence of 20 uM of 26S proteasome inhibitor MG132 pretreated for 1 hr; assay type: cell-based
# [22] = target: Telomerase reverse transcriptase (Homo sapiens) (UniProt O14746); test: Inhibition of telomerase in human A549 cells at 25 uM after 24 hrs by TRAP assay in presence of 20 nM of nuclear export inhibitor leptomycin B pretreated for 1 hr; assay type: cell-based
# [23] = target: Telomerase reverse transcriptase (Homo sapiens) (UniProt O14746); test: Inhibition of telomerase in human A549 cells assessed as increase of intracellular calcium release after 24 hrs using Fluo-3 AM staining by microscopic analysis; assay type: cell-based
# [24] = tested on: A549; test: Reduction of hTR mRNA expression in human A549 cells at 20 uM after 6 hrs by RT-PCR analysis; assay type: functional, cell-based
# [25] = tested on: A549; test: Reduction of colony formation in human A549 cells at 12.5 uM after 24 hrs by anchorage-independence cell growth assay relative to control; assay type: functional; parameters: scale not given: the % may be the effect or the level left
# [26] = tested on: A549; test: Reduction of hTERT mRNA expression in human A549 cells at 50 uM after 6 hrs by RT-PCR analysis; assay type: functional; parameters: scale not given: the % may be the effect or the level left
# [27] = tested on: A549; test: Reduction of colony formation in human A549 cells at 6.25 uM after 24 hrs by anchorage-independence cell growth assay relative to control; assay type: functional; parameters: scale not given: the % may be the effect or the level left
compound,measurement,setting,value
COc1ccc(/C=C/C(=O)c2cc(OC)c(OC)c(OC)c2)cc1OC,inhibition,[1],Active
COc1cc(C(=O)/C=C/c2ccc(N(C)C)cc2)cc(OC)c1OC,inhibition,[1],inactive
COc1cc(OC)c2c(c1)O[C@H](c1ccccc1)CC2=O,inhibition,[1],inactive
COc1cc(/C=C/C(=O)c2cc(OC)c(OC)c(OC)c2)cc(OC)c1OC,inhibition,[1],Active
COc1cc(O)c2c(c1OC)O[C@H](c1ccccc1)CC2=O,inhibition,[1],inactive
COc1ccc(/C=C2/COc3cc(O)ccc3C2=O)cc1,inhibition,[1],Active
COc1cccc(/C=C/C(=O)c2cc(OC)c(OC)c(OC)c2)c1OC,inhibition,[1],Active
COC[C@H](Cc1ccc(OC)c(OC)c1)[C@H](COC)Cc1ccc(OC)c(OC)c1,inhibition,[1],inactive
C[C@H]1O[C@H](Oc2cc(O)c3c(=O)c(O[C@H]4O[C@H](C)[C@@H](O[C@H]5O[C@H](CO)[C@@H](O)[C@H](O)[C@H]5O)[C@H](O)[C@@H]4O)c(-c4ccc(O)cc4)oc3c2)[C@@H](O)[C@@H](O)[C@@H]1O,inhibition,[1],inactive
COc1cc(O)c(C(=O)/C=C/c2cccc(OC)c2OC)c(OC)c1,inhibition,[2],Active
same,Activity,[3],inactive
same,inhibition,[4],Active
same,Activity,[5],Active
same,Activity,[6],70%
same,Activity,[7],59%
same,inhibition,[8],Dose-dependent effect
same,Activity,[9],inactive
same,Activity,[10],inactive
same,Activity,[11],inactive
same,Activity,[12],inactive
same,Activity,[13],Dose-dependent effect
same,Activity,[14],Dose-dependent effect
same,inhibition,[15],Active
same,inhibition,[16],inactive
same,inhibition,[17],tde
same,inhibition,[18],Active
same,Activity,[19],Dose-dependent effect
same,inhibition,[20],inactive
same,inhibition,[21],Active
same,inhibition,[22],Active
same,inhibition,[23],Dose-dependent effect
same,inhibition,[1],Active
same,Activity,[24],inactive
same,Activity,[25],96%
same,Activity,[26],92%
same,Activity,[27],23%
COc1c(O)cc(C(=O)O)cc1O,inhibition,[1],inactive
